The source of these data is patent US9572760B2, “Uses of compounds and mixtures from Antrodia cinnamomea mycelia” (Simpson Biotech Co., Ltd., priority 2013, dated 2017).

Assay [1] has as its system pre-fibrotic genes including α-SMA, TIMP, Collagen type I and TGF-β1. The assay is described as follows: Real-time RT-PCR of pre-fibrotic gene expression in liver of cirrhotic animals. Type of assay: in vivo, Wistar rats. The note with it: compound B 7 mg/kg, compound C 14 mg/kg, ACM 320 mg/kg. The procedure: Sample tissues of rat livers were measured about 0.5×0.5 cm in area. Each of tissue was homogenized in 1 mL of TRIzol buffer (Invitrogen, Carlsbad, Calif., USA) with a motorized pestle, and then mixed with 0.5 mL chloroform/isoamyl alcohol (24:1), and was centrifuged at 12,000×g for 10 min at 4° C. The supernatant was transferred to a fresh tube, and isopropanol was added, mix well and stored at −80° C. overnight. The reaction mixture was centrifuged at 12,000×g for 30 min at 4° C. to produce a rude RNA pallet, the pellet was washed with 70% ethanol and air-dried. The concentrations of total RNA were measured by absorbance at 260 nm using a NanoDrop ND-1000 (NanoDrop, USA). Reverse transcription reaction was performed using a commercially available set of High Capacity RNA-to-cDNA Kit (Applied Biosystems, USA). cDNA was prepared from 2 μg of total RNA per 20 μl reaction, according to the manufacturer's instructions—37° C. for 60 minutes, 95° C. for 5 minutes, and hold at 4° C. The resulting cDNA was to a final concentration of 100 ng/μl and constituted a matrix in further experiments. Amplification and detection the gene expression by real-time PCR were performed using StepOne plus Real-time PCR System (Applied Biosystems, USA). Samples were assayed in a 10 μl reaction mixture containing 2 μl of template DNA, 5 μl of 2× TaqMan PCR Master Mix (Applied Biosystems, Life Technologies, Foster City, Calif., USA), 0.5 μl of 20× assay mix containing probe, forward and reverse primer (Applied Biosystems, Life Technologies, Foster City, Calif., USA), whereby qPCR targets with the following information were used: (a) Rat α-SMA, Assay ID Rn01759928_g1, (b) Rat TIMP, Assay ID Rn00587558_m1, (c) Rat TGF-β1, Assay ID Rn00572010_m1, (d) Rat Collagen I, Assay ID Rn 01463838_m1, (e) Rat CuZnSOD, Assay ID Rn00566938_m1, (f) Rat MnSOD, Assay ID Rn00690587_g1, (g) Rat Catalase, Assay ID Rn00560930_m1, (h) Rat Glutathione peroxidase, Assay ID Rn00577994_g1, (i) Rat NADPH oxidase, Assay ID Rn00585380_m1 and (j) Rat GAPDH, Assay ID Rn1462662_g1. To control variation in mRNA concentration, all results were normalized to the housekeeping gene, GAPDH. Relative quantitation was performed using the comparative ΔΔCt method according to the manufacture's instructions. The cycling conditions used were as follows: 50° C. for 2 min, 95° C. for 10 min followed by 40 cycles of 95° C. for 15 s and 60° C. for 1 min each.
For orientation: Quantitative PCR measures a nucleic acid by following its amplification.

Assay [2] has as its system TGFb1-treated immortalized HSC. The assay is described as follows: Profibrogenic gene expression in immortalized HSC with recombinant TGF-β treatment (qRT-PCR). To be noted: for Collagen-1 expression / TGF-β expression / TIMP-1 expression / αSMA expression: compounds 72 hours, then TGF-β (3 ng/ml) 48 hours. Type of assay: cell-based, human. The text has this: The AML12 (mouse hepatocyte) cells were obtained from the BCRC (Bioresource Collection and Research Center) and cultured in Dulbecco's modified Eagle media (DMEM, Gibco by Invitrogen) with 1% antibiotic antimycotic (Gibco by Invitrogen) and 15% fetal bovine serum (Gibco by Invitrogen). The human Hepatic Stellate Cell, HSC cell line was obtained from the ScienCell Research Laboratory (USA) and cultured in complete medium, Stellate Cell Medium (ScienCell Research Laboratory) with 2% fetal bovine serum (ScienCell Research Laboratory), 1% stellate cell growth supplement (ScienCell Research Laboratory) and 1% penicillin/streptomycin solution (ScienCell Research Laboratory). […] For primary hepatic stellate cell isolation, C57BL/6 mice were anesthetized by intraperitoneal injection of ketamine and xylazine. […] Mouse livers were perfused in situ with 0.5 mM EGTA containing calcium-free salt solution (8 ml/min, 37° C. for 5 minutes), followed by perfusion with 2-step 0.05% collagenase D and pronase containing buffer (Roche Molecular Biochemicals, Indianapolis, Ind.) for 5 and 10 minutes, respectively. The harvested liver was minced gently on a Petri dish and additional incubation with protease containing buffer at 37° C. for 25 minutes. Then, the liver was filtered with 70 μm cell strainer. Cells were centrifuged and collected followed by 8.2% Nycodenz (Accurate Chemical and Scientific Corp.). The cell lines were cultured at 37° C. in a humidified atmosphere containing 5% CO2.
Exponentially growing cells were harvested and seeded in a 6-well microtiter plate. Each well of cells were collected to eppendrof in 1 mL of TRIzol buffer (Invitrogen, Carlsbad, Calif., USA), and then mixed with 0.5 mL chloroform/isoamyl alcohol (24:1), eppendrofs were centrifuged at 12,000×g for 10 min at 4° C. The supernatant was transferred to a fresh tube, and isopropanol was added, mix well and stored at −80° C. overnight. The reaction mixture was centrifuged at 12,000×g for 30 min at 4° C. to produce a rude RNA pallet, the pellet was washed with 70% ethanol and air-dried. The concentrations of total RNA were measured by absorbance at 260 nm using a NanoDrop ND-1000 (NanoDrop, USA).
Reverse transcription reaction was performed using a commercially available set of High Capacity RNA-to-cDNA Kit (Applied Biosystems, USA). cDNA was prepared from 2 μg of total RNA per 20 μl reaction, according to the manufacturer's instructions—37° C. for 60 minutes, 95° C. for 5 minutes, and hold at 4° C. The resulting cDNA was to a final concentration of 100 ng/μl and constituted a matrix in further experiments.
Amplification and detection the gene expression by real-time PCR were performed using StepOne plus Real-time PCR System (Applied Biosystems, USA). Samples were assayed in a 10 μl reaction mixture containing 2 μl of template DNA, 5 μl of 2× TaqMan PCR Master Mix (Applied Biosystems, Life Technologies, Foster City, Calif., USA), 0.5 μl of 20× assay mix containing probe, forward and reverse primer (Applied Biosystems, Life Technologies, Foster City, Calif., USA), whereby qPCR targets with the following information were used: (a) α-SMA, Assay ID Rn01759928_g1, (b) TIMP-1, Assay ID Rn00587558_m1, (c) TGF-β1, Assay ID Rn00572010_m1, (d) Collagen I, Assay ID Rn 01463838_m1, (e) GAPDH, Assay ID Rn1462662_g1. To control variation in mRNA concentration, all results were normalized to the housekeeping gene, GAPDH. Relative quantitation was performed using the comparative ΔΔCt method according to the manufacturer's instructions. The cycling conditions used were as follows: 50° C. for 2 min, 95° C. for 10 min followed by 40 cycles of 95° C. for 15 s and 60° C. for 1 min each. […]

Turning to `CC(C)=CCOc1ccc(C2=C(CC(C)C)C(=O)NC2=O)cc1` [Compound B, 3-isobutyl-4-[4-(3-methyl-2-butenyloxy)phenyl]-1H-pyrrol-2,5-dione], in assay [1], the “Collagen type I gene expression in liver” value was “reduced significantly”, the “TGF-β1 gene expression in liver” value is listed as “reduced significantly”, the “TIMP gene expression in liver” value is given as “reduced significantly” and the “α-SMA gene expression in liver” value is on record as “reduced significantly”. In assay [2], the “anti-fibrosis effect on immortalized HSC in response to TGF-β (summary)” value is given as “anti-fibrosis effect”, the Collagen-1 expression entry is “dose-dependent effect”, the TGF-β expression entry is reported as “dose-dependent effect” and the TIMP-1 expression entry was “dose-dependent effect”. Moreover, the αSMA expression result in assay [2] was “dose-dependent effect”.
As to `CC(C)=CCOc1ccc(C2=C(CC(C)C)C(=O)N(O)C2=O)cc1` [Compound C, 3-isobutyl-4-[4-(3-methyl-2-butenyloxy)phenyl]-1H-pyrrol-1-ol-2,5-dione], in assay [1], the “Collagen type I gene expression in liver” value is “reduced significantly”, the “TGF-β1 gene expression in liver” value is on record as “reduced significantly”, the “TIMP gene expression in liver” value was “reduced significantly” and the “α-SMA gene expression in liver” value is listed as “reduced significantly”. Moreover, in assay [2], the “anti-fibrosis effect on immortalized HSC in response to TGF-β (summary)” value is reported as “anti-fibrosis effect”, the Collagen-1 expression result was “dose-dependent effect”, the TGF-β expression entry is listed as “dose-dependent effect” and the TIMP-1 expression result was “dose-dependent effect”. For the same compound, the αSMA expression entry in assay [2] is given as “dose-dependent effect”.
